From PMC6220272, “Scaffold-Hopping from Synthetic Drugs by Holistic Molecular Representation” (Scientific Reports, 2018)

What was measured:
Assay type in all cases: cell-based
LXRβ = target: T1, LXRβ (Homo sapiens, UniProt P55055); test: Gal4 hybrid reporter gene assay LXRβ (selectivity profiling)
T1 construct: expressed in transfected cells; host or cells: HEK293T
T1 sequence (P55055 222-460 limits assumed): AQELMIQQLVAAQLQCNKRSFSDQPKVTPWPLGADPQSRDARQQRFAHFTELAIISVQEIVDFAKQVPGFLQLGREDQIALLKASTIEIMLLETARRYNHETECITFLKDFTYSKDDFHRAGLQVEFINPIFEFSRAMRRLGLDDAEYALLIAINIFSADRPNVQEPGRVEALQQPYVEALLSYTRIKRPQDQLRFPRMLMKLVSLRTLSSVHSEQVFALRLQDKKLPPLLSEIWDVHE
Protocol: (§1) Moreover, 7 was characterized for its ability to modulate RXR target gene expression under more physiological conditions. Hepatoma cells (HepG2) were incubated with 7 (30 µM) or reference RXR agonist bexarotene (9, 1 µM) for eight hours and mRNA expression of RXR regulated genes ATP-binding cassette transporter A1 (ABCA1), angiopoietin like protein 4 (ANGPTL4) and apolipoprotein E (ApoE) was analysed by quantitative real-time PCR.
(§2) The Gal4 hybrid reporter gene assays were conducted as reported previously[39]–[41]. pFA-CMV-based constructs comprising the ligand binding domain of the human nuclear receptor in question were used as expression plasmids for the chimera receptors. pFR-Luc (Stratagene) served as reporter plasmid and pRL-SV40 (Promega) for normalization of transfection efficiency and cell growth. The assays were conducted in 96-well format in HEK293T cells that were cultured as described previously[39]–[41]. Transient transfection was carried out using Lipofectamine LTX reagent (Invitrogen) according to the manufacturer’s protocol. After transfection and incubation with test compounds (12–14 h), cells were assayed for luciferase activity using Dual-Glo™ Luciferase Assay System (Promega) according to the manufacturer’s protocol. Luminescence was measured with an Infinite M200 luminometer (Tecan Deutschland GmbH). […]

[1] = system: Gal4-responsive reporter gene; test: Control experiment without Gal4-RXR hybrid receptor (reporter gene construct and renilla luciferase only)
Protocol: as §1, §2

vitamin D receptor [VDR] = target: T2, vitamin D receptor [VDR] (Homo sapiens, UniProt P11473); test: Gal4 hybrid reporter gene assay VDR (selectivity profiling)
T2 construct: expressed in transfected cells; host or cells: HEK293T
T2 sequence (P11473 127-423 limits assumed): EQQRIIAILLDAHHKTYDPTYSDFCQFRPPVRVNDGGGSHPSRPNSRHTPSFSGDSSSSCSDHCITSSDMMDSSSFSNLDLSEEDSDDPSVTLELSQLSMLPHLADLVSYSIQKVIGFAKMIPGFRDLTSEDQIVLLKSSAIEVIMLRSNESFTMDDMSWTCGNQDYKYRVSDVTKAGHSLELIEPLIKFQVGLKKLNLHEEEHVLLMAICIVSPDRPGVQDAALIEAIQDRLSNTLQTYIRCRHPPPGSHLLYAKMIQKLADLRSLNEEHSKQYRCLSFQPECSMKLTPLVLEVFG
Protocol: as §1, §2

[2] = system: ATP-binding cassette transporter A1 (ABCA1) mRNA in HepG2 cells; test: Target gene quantification (quantitative real-time PCR), ABCA1; settings: HepG2, 7 at 30 µM versus bexarotene at 1 µM, 8 h, qRT-PCR
Protocol: as §1
HepG2 cells were incubated with test compound 7 (30 µM) or bexarotene (1 µM) as positive control each dissolved in 0.1% DMSO or 0.1% DMSO alone as untreated control for 8 h, harvested, washed with cold phosphate buffered saline (PBS) and then directly used for RNA extraction with the Total RNA Mini Kit (R6834-02, Omega Bio-Tek, Inc., Norcross, GA, USA). 2 µg RNA were reverse-transcribed into cDNA using the High-Capacity cDNA Reverse Transcription Kit (4368814, Thermo Fischer Scientific, Inc.). RXR target gene expression was evaluated by quantitative real time PCR analysis with a StepOnePlus™ System (Life Technologies, Carlsbad, CA, USA) using PowerSYBRGreen (Life Technologies; 12.5 µl per well) and the primers reported in Supplementary Table 4[58]. […] The expression was quantified by the comparative ∆∆Ct method. […] Results are expressed as mean ± standard error of the mean (SEM) relative mRNA expression compared to DMSO (0.1%) control which was set as 1.

LXRα = target: T3, LXRα (Homo sapiens, UniProt Q13133); test: Gal4 hybrid reporter gene assay LXRα (selectivity profiling)
T3 construct: expressed in transfected cells; host or cells: HEK293T
T3 sequence (Q13133 209-447 limits assumed): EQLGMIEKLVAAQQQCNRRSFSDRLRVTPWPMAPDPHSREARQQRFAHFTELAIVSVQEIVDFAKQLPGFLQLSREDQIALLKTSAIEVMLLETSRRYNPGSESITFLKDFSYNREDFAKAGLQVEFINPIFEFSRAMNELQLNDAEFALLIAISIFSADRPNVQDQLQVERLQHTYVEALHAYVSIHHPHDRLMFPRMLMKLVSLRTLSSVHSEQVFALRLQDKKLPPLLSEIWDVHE
Protocol: as §1, §2

RARβ = target: T4, RARβ (Homo sapiens, UniProt P10826); test: Gal4 hybrid reporter gene assay RARβ (selectivity profiling)
T4 construct: expressed in transfected cells; host or cells: HEK293T
T4 sequence (P10826 183-417 limits assumed): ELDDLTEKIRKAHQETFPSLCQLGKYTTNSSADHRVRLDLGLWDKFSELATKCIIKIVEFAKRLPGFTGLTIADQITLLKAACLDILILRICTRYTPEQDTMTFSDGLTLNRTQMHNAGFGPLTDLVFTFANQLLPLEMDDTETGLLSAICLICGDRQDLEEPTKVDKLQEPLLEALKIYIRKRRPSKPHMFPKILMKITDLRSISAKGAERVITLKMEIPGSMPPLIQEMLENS
Protocol: as §1, §2

CC(C)(C)c1cc(/C=N/NC(=O)c2ccc(N)cc2)cc(C(C)(C)C)c1 [Compound 7]
activity on LXRβ (LXRβ): no activity | reporter transactivation without hybrid receptor [1]: no reporter transactivation | activity on VDR (vitamin D receptor [VDR]): no activity | induction of ABCA1 mRNA expression [2]: comparable efficacy as RXR agonist bexarotene | activity on LXRα (LXRα): no activity | activity on RARβ (RARβ): no activity
